From US20230406864A1, “7-AZOLE SUBSTITUTED 2-AMINOQUINAZOLINE INHIBITORS OF HPK1” (MERCK SHARP & DOHME LLC, priority 2020, published 2023)

Molecular target: T1, Human HPK1, catalytic domain (Homo sapiens, UniProt Q92918)
T1 construct: purchased Cama (so in the source)
T1 sequence (Q92918 1-346): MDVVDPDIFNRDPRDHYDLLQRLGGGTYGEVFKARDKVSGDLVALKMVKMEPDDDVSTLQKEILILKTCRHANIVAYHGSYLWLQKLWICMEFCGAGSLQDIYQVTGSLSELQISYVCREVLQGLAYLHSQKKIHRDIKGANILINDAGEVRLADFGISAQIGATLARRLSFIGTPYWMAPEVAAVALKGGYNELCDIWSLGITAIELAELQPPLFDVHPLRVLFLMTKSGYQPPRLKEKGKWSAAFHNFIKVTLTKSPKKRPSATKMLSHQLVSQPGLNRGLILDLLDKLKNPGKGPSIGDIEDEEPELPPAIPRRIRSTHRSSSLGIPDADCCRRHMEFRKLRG
Experiment: HPK1-SLP76 TR-FRET assay
Type: biochemical
Conditions: HPK1 kinase domain 0.075 nM; full length SLP-76 10 nM; ATP 10 μM; 30 min preincubation; 60 min reaction; room temperature

In order of rising IC50:
1. Cc1c(-c2cc3nc(Nc4cnn(C5CCN(C)CC5)c4)ncc3c(N)c2F)cnc2c1NCCO2 [Example 2-44, 6-fluoro-7-(8-methyl-2,3-dihydro-1H-pyrido[2,3-b][1,4]oxazin-7-yl)-N~2~-[1-(1-methylpiperidin-4-yl)-1H-pyrazol-4-yl]quinazoline-2,5-diamine]  0.045 nM
2. Cc1c(-c2cc3nc(Nc4cnn5c4CCC5)ncc3c(N)c2F)cnc2c1NCCO2 [Example 2-35, N~2~-(5,6-dihydro-4H-pyrrolo[1,2-b]pyrazol-3-yl)-6-fluoro-7-(8-methyl-2,3-dihydro-1H-pyrido[2,3-b][1,4]oxazin-7-yl)quinazoline-2,5-diamine]  0.051 nM
3. Cc1c(-c2cc3nc(Nc4cnn(C56CC(C(C)(C)O)(C5)C6)c4)ncc3c(N)c2F)cnc2c1NCCO2 [Example 2-46, 2-[3-(4-{[5-amino-6-fluoro-7-(8-methyl-2,3-dihydro-1H-pyrido[2,3-b][1,4]oxazin-7-yl)quinazolin-2-yl]amino}-1H-pyrazol-1-yl)bicyclo[1.1.1]pentan-1-yl]propan-2-ol]  0.051 nM
4. Cc1c(-c2cc3nc(Nc4cnn(C5COC5)c4)ncc3c(N)c2F)cnc2c1NCCO2 [Example 2-39, 6-fluoro-7-(8-methyl-2,3-dihydro-1H-pyrido[2,3-b][1,4]oxazin-7-yl)-N~2~-[1-(oxetan-3-yl)-1H-pyrazol-4-yl]quinazoline-2,5-diamine]  0.051 nM
5. Cc1c(-c2cc3nc(Nc4cnn(C)c4C)ncc3c(N)c2F)cnc2c1NCCO2 [Example 2-30, N~2~-(1,5-dimethyl-1H-pyrazol-4-yl)-6-fluoro-7-(8-methyl-2,3-dihydro-1H-pyrido[2,3-b][1,4]oxazin-7-yl)quinazoline-2,5-diamine]  0.051 nM
6. Cc1c(-c2cc3nc(Nc4cnn(CC(F)F)c4)ncc3c(N)c2F)cnc2c1NCCO2 [Example 2-32, N~2~-[1-(2,2-difluoroethyl)-1H-pyrazol-4-yl]-6-fluoro-7-(8-methyl-2,3-dihydro-1H-pyrido[2,3-b][1,4]oxazin-7-yl)quinazoline-2,5-diamine]  0.054 nM
7. Cc1c(-c2cc3nc(Nc4cc5n(n4)CCN(C(C)C)C(=O)C5)ncc3c(N)c2F)cnc2c1NCCO2 [Example 2-20, 2-{[5-amino-6-fluoro-7-(8-methyl-2,3-dihydro-1H-pyrido[2,3-b][1,4]oxazin-7-yl)quinazolin-2-yl]amino}-6-(propan-2-yl)-7,8-dihydro-4H-pyrazolo[1,5-d][1,4]diazepin-5(6H)-one]  0.063 nM
8. Cc1c(-c2cc3nc(Nc4cnn(C5CCNCC5)c4)ncc3c(N)c2F)cnc2c1NCCO2 [Example 2-11, 6-fluoro-7-(8-methyl-2,3-dihydro-1H-pyrido[2,3-b][1,4]oxazin-7-yl)-N~2~-[1-(piperidin-4-yl)-1H-pyrazol-4-yl]quinazoline-2,5-diamine]  0.071 nM
9. Cc1c(-c2cc3nc(Nc4cnn(C5(C)CC5)c4)ncc3c(N)c2F)cnc2c1NCCO2 [Example 2-8, 6-fluoro-N~2~-[1-(1-methylcyclopropyl)-1H-pyrazol-4-yl]-7-(8-methyl-2,3-dihydro-1H-pyrido[2,3-b][1,4]oxazin-7-yl)quinazoline-2,5-diamine]  0.088 nM
10. CNC(=O)C12CC(n3cc(Nc4ncc5c(N)c(F)c(-c6cnc7c(c6C)NCCO7)cc5n4)cn3)(C1)C2 [Example 2-28, 3-(4-{[5-amino-6-fluoro-7-(8-methyl-2,3-dihydro-1H-pyrido[2,3-b][1,4]oxazin-7-yl)quinazolin-2-yl]amino}-1H-pyrazol-1-yl)-N-methylbicyclo[1.1.1]pentane-1-carboxamide]  0.094 nM
11. Cc1c(-c2cc3nc(Nc4cnn(C)c4)ncc3c(N)c2F)cnc2c1NCCO2 [Example 2-10, 6-fluoro-7-(8-methyl-2,3-dihydro-1H-pyrido[2,3-b][1,4]oxazin-7-yl)-N~2~-(1-methyl-1H-pyrazol-4-yl)quinazoline-2,5-diamine]  0.13 nM
12. Cc1c(-c2cc3nc(Nc4cnn(C5CCN(C)C5=O)c4)ncc3c(N)c2F)cnc2c1NCCO2 (single isomer, unassigned) [Example 2-19, (S or R)-3-(4-{[5-amino-6-fluoro-7-(8-methyl-2,3-dihydro-1H-pyrido[2,3-b][1,4]oxazin-7-yl)quinazolin-2-yl]amino}-1H-pyrazol-1-yl)-1-methylpyrrolidin-2-one]  0.15 nM
13. Cc1c(-c2cc3nc(Nc4cnn([C@H]5CCN(C)C5)c4)ncc3c(N)c2F)cnc2c1NCCO2 [Example 2-47, (S)-6-fluoro-7-(8-methyl-2,3-dihydro-1H-pyrido[2,3-b][1,4]oxazin-7-yl)-N2-(1-(1-methylpyrrolidin-3-yl)-1H-pyrazol-4-yl)quinazoline-2,5-diamine]  0.177 nM
14. Cc1c(-c2cc3nc(Nc4cnn(C5CC5)c4C)ncc3c(N)c2F)cnc2c1NCCO2 [Example 2-45, N~2~-(1-cyclopropyl-5-methyl-1H-pyrazol-4-yl)-6-fluoro-7-(8-methyl-2,3-dihydro-1H-pyrido[2,3-b][1,4]oxazin-7-yl)quinazoline-2,5-diamine]  0.18 nM
15. Cc1c(-c2cc3nc(Nc4cnn(CC(F)(F)F)c4)ncc3c(N)c2F)cnc2c1NCCO2 [Example 2-7, 6-fluoro-7-(8-methyl-2,3-dihydro-1H-pyrido[2,3-b][1,4]oxazin-7-yl)-N~2~-[1-(2,2,2-trifluoroethyl)-1H-pyrazol-4-yl]quinazoline-2,5-diamine]  0.26 nM
16. Cc1nsc(Nc2ncc3c(N)c(F)c(-c4cnc5c(c4C)NCCO5)cc3n2)c1Cl [Example 2-36, N~2~-(4-chloro-3-methyl-1,2-thiazol-5-yl)-6-fluoro-7-(8-methyl-2,3-dihydro-1H-pyrido[2,3-b][1,4]oxazin-7-yl)quinazoline-2,5-diamine]  0.28 nM
17. Cc1c(-c2cc3nc(Nc4cnn(C5CCN(C)C5=O)c4)ncc3c(N)c2F)cnc2c1NCCO2 (single isomer, unassigned) [Example 2-21, (S or R)-3-(4-{[5-amino-6-fluoro-7-(8-methyl-2,3-dihydro-1H-pyrido[2,3-b][1,4]oxazin-7-yl)quinazolin-2-yl]amino}-1H-pyrazol-1-yl)-1-methylpyrrolidin-2-one]  0.35 nM
18. Cc1c(-c2cc3nc(Nc4cnn(C5(C)CC5)c4Cl)ncc3c(N)c2F)cnc2c1NCCO2 [Example 2-26, N~2~-[5-chloro-1-(1-methylcyclopropyl)-1H-pyrazol-4-yl]-6-fluoro-7-(8-methyl-2,3-dihydro-1H-pyrido[2,3-b][1,4]oxazin-7-yl)quinazoline-2,5-diamine]  0.38 nM
19. Cc1cc(Nc2ncc3c(N)c(F)c(-c4cnc5c(c4C)NCCO5)cc3n2)sn1 [Example 2-17, 6-fluoro-7-(8-methyl-2,3-dihydro-1H-pyrido[2,3-b][1,4]oxazin-7-yl)-N~2~-(3-methyl-1,2-thiazol-5-yl)quinazoline-2,5-diamine]  0.38 nM
20. CCn1ncc(Nc2ncc3c(N)c(F)c(-c4cnc5c(c4C)NCCO5)cc3n2)c1F [Example 2-38, N~2~-(1-ethyl-5-fluoro-1H-pyrazol-4-yl)-6-fluoro-7-(8-methyl-2,3-dihydro-1H-pyrido[2,3-b][1,4]oxazin-7-yl)quinazoline-2,5-diamine]  0.57 nM
21. Cc1c(-c2ccc3cnc(Nc4cc5n(n4)CCN(CC(C)(C)O)C(=O)C5)nc3c2)cnc2c1NCCO2 [Example 1-8, 6-(2-hydroxy-2-methylpropyl)-2-((7-(8-methyl-2,3-dihydro-1H-pyrido[2,3-b][1,4]oxazin-7-yl)quinazolin-2-yl)amino)-7,8-dihydro-4H-pyrazolo[1,5-d][1,4]diazepin-5(6H)-one]  0.675 nM
22. Cc1c(-c2ccc3cnc(Nc4cnn(C)c4)nc3c2)cnc2c1NCCO2 [Example 1-5, 7-(8-methyl-2,3-dihydro-1H-pyrido[2,3-b][1,4]oxazin-7-yl)-N-(1-methyl-1H-pyrazol-4-yl)quinazolin-2-amine]  0.71 nM
23. CNC(=O)C(C)(C)n1cc(Nc2ncc3c(N)c(F)c(-c4cnc5c(c4C)NCCO5)cc3n2)cn1 [Example 2-41, 2-(4-{[5-amino-6-fluoro-7-(8-methyl-2,3-dihydro-1H-pyrido[2,3-b][1,4]oxazin-7-yl)quinazolin-2-yl]amino}-1H-pyrazol-1-yl)-N,2-dimethylpropanamide]  0.84 nM
24. CCn1cc(Nc2ncc3c(N)c(F)c(-c4cnc5c(c4C)NCCO5)cc3n2)c(C)n1 [Example 2-27, N~2~-(1-ethyl-3-methyl-1H-pyrazol-4-yl)-6-fluoro-7-(8-methyl-2,3-dihydro-1H-pyrido[2,3-b][1,4]oxazin-7-yl)quinazoline-2,5-diamine]  1 nM
25. Cc1c(-c2cc3nc(Nc4cnn(CC(C)(C)O)c4)ncc3c(N)c2F)cnc2c1NCCO2 [Example 2-24, 1-(4-{[5-amino-6-fluoro-7-(8-methyl-2,3-dihydro-1H-pyrido[2,3-b][1,4]oxazin-7-yl)quinazolin-2-yl]amino}-1H-pyrazol-1-yl)-2-methylpropan-2-ol]  1.1 nM
26. Cc1c(-c2ccc3cnc(Nc4cnn(C5COC5)c4)nc3c2)cnc2c1NCCO2 [Example 1-1, 7-(8-methyl-2,3-dihydro-1H-pyrido[2,3-b][1,4]oxazin-7-yl)-N-[1-(oxetan-3-yl)-1H-pyrazol-4-yl]quinazolin-2-amine]  1.2 nM
27. Cc1nn(C(C)C)cc1Nc1ncc2c(N)c(F)c(-c3cnc4c(c3C)NCCO4)cc2n1 [Example 2-33, 6-fluoro-7-(8-methyl-2,3-dihydro-1H-pyrido[2,3-b][1,4]oxazin-7-yl)-N~2~-[3-methyl-1-(propan-2-yl)-1H-pyrazol-4-yl]quinazoline-2,5-diamine]  3.5 nM
